In patent US9572760B2, “Uses of compounds and mixtures from Antrodia cinnamomea mycelia” (Simpson Biotech Co., Ltd., priority 2013, dated 2017):

How the values were obtained:
cirrhotic animals = assay: Redox status (Glutathione level, GSH:GSSG ratio) in cirrhotic animals; type: in vivo, Wistar rats; settings: compound B 7 mg/kg, compound C 14 mg/kg
Procedure: A commercially available kit (# K264-100, BioVision) was used to measure glutathione (GSH), and oxidized glutathione (GSSG). […] The assay was conducted with several modifications to the manufacturer's directions. Briefly, cellular pellet (˜10 mg) was homogenized immediately, and take 60 μl of each sample to a prechilled tube containing Perchloric Acid and centrifuged at 13,000×g for 2 min, collect supernatant and stored at −80° C. until analyzed. The assay was conducted as described by the manufacturer. Briefly, cold 3N KOH was added to each sample mixed, and centrifuged at 13,000×g for 10 min. Ten microliters of each sample and the appropriate buffer and 90 μl of Assay Buffer to detect GSH and 10 μl of glutathione reductase were mixed to detect total glutathione and 10 μl of GSH Quencher to detect GSSG and incubated at room temperature for 40 min and the absorbance of each sample was read at 340/420 nm for 3 min. The protein concentration for each sample was determined via a DC protein concentration assay (Bio-Rad). Signals from each sample were normalized to the corresponding protein content of that sample.

tyrosinase = molecular target: T1, tyrosinase (Mus musculus, UniProt P11344); assay: Cellular tyrosinase activity assay (L-DOPA oxidation) in B16F10 cells exposed to UV; type: cell-based, murine; settings: UV alone 52.55±4.36% increase over non-UV control (3.0±0.5 U/mg protein)
T1 construct: endogenous in cells; host or cells: B16F10 murine melanoma cells (ATCC), total cell lysate
T1 sequence (P11344 19-533): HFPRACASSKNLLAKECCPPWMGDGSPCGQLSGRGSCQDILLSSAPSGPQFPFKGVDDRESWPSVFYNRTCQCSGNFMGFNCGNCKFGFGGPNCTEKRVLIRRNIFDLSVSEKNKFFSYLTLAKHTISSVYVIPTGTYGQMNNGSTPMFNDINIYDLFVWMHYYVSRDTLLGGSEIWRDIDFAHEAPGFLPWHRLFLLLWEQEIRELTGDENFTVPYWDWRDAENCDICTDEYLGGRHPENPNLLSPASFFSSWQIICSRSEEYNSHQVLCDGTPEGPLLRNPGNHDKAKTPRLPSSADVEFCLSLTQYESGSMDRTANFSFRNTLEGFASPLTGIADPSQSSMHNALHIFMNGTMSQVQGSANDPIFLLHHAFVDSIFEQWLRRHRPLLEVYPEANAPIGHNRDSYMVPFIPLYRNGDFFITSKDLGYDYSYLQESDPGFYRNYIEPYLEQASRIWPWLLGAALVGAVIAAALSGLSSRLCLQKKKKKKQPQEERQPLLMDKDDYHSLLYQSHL
Text: The dermal fibroblast cell line CG1639 was obtained from the BCRC (Bioresource Collection and Research Center) and cultured in Dulbecco's modified Eagle media (DMEM, Gibco by Invitrogen) with 1% antibiotic antimycotic (Gibco by Invitrogen) and 15% fetal bovine serum (Gibco by Invitrogen). The fetal rat skin keratinocyte, FRSK cell line was obtained from the Japan HSRRB (Health Science Research Resources Bank) and cultured in Eagle's minimal essential media (MEM, Gibco by Invitrogen) supplemented with 10% fetal bovine serum (FBS) (Gibco by Invitrogen) and 1% antibiotic antimycotic (Gibco by Invitrogen). B16F10 cells, a murine melanoma cell line, were purchased from American Type Culture Collection (ATCC, Rockville, Md., USA) and was cultured in Eagle's Minimum Essential Medium (MEM; Sigma, St. Louis, Mo.) supplemented with 10% fetal bovine serum (FBS; HyClone Lab. Inc., Logan, Utah), 0.02% antibiotic-antimycotic liquid (penicillin, 10 000 U mL^−1; streptomycin, 10 000 μg mL^−1 and amphotericin B, 25 μg mL^−1; Invitrogen, Carlsbad, Calif.).
To investigate the induction of melanogenesis and the oxidative stress by direct UV irradiation, melanoma cells and keratocytes were irradiated with 8 J cm^−2 of UVA (FL15BLB, 352 nm, 15 W; Toshiba, Tokyo, Japan) and 10 mJ cm^−2 of UVB (G15T8E, 306 nm, 15 W; Sankyo Denki, Tokyo, Japan) in a HANKS' balanced salt solution (Sigma). The UV intensity was measured by using a Model UVX Digital Radiometer (UVP Inc., Upland, Calif.).
B16F10 and FRSK cells were exposed to Hepasim compounds A-D by two different concentrations (3 or 10 μM) for 72 hrs prior to UVA irradiation. DMEM was replaced with phosphate buffered saline (PBS) to avoid generation of medium-derived toxic photoproducts prior to UV irradiation. Cells were collected 24 hrs after UVA irradiation and assayed. For preparation of cell lysate, the harvested cells were pelleted by centrifugation and lysed in lysis buffer containing 50 mM Tris-HCl, 10 mM ethylene diaminetetraacetic acid (EDTA), 1% (v/v) Tri-ton X-100, phenylmethylsulfonyl fluoride (PMSF) (100 mg/ml) and pepstatin A (1 mg/ml) in DMSO and leupeptin (1 mg/ml) in H2O, pH 6.8. The cells were centrifuged at 10,000 rpm for 10 min and the total cell lysate was collected and stored at −80° C.
The rate of L-DOPA oxidation was measured to assess cellular tyrosinase activity in B16F10 cells exposed to UV. The assay was performed as below described, 20 mM L-DOPA used as the substrates was added to each lysate in a 96-well plate and absorbance of dopachrome formation was measured spectrophotometrically at 475 nm every 10 min for 1 h at 37° C. by a spectrophotometer. The tyrosinase activity was calculated by comparison to a standard curve using tyrosinase (2034 U/mg) and was expressed as unit/mg protein. The data are expressed as a percentage of the tyrosinase activity (unit/mg protein) of non-irradiated and untreated control cells (100%).

hypertrophic scarring = assay: Rabbit ear model of hypertrophic scarring: scar and epidermal thickness, histology; type: in vivo, New Zealand white rabbits; settings: for mean epidermal thickness (ETI) / mean scar thickness (SEI): 1% w/v applied to wounds every day for 14 days; for mean epidermal thickness (ETI): control 5.08±0.44; for mean scar thickness (SEI): day 14, control 3.71±0.31; for histology: dermis layer of scars: treated for 14 day, 1% w/v
Procedure: The rabbit ear model of hypertrophic scarring was established. In brief, 12 New Zealand white rabbits, weighing 2.5 to 3.0 kg, were prepared for wounding under sterile conditions. Four 1 cm full thickness circular wounds were created down to the cartilage on the ventral side of each ear using a 1 cm punch biopsy. The perichondrial membrane was then dissected off the cartilage using a surgical blade. The test agents including compound B, C and ACM ethanol extract were applied to the wounds of the experimental group ([…] to each wound) every day in concentrations of 1% w/v for 14 days, while the control group received equal amounts of 1% w/v saline.

SMILES	Redox status: GSH:GSSG ratio (cirrhotic animals)	Redox status: Glutathione level (cirrhotic animals)	tyrosinase activity in UV-irradiated B16F10 cells (tyrosinase; 3 μM) [%]	tyrosinase activity in UV-irradiated B16F10 cells (tyrosinase; 10 μM) [%]	mean epidermal thickness (ETI) (hypertrophic scarring)	mean scar thickness (SEI) (hypertrophic scarring)	histology: dermis layer of scars (hypertrophic scarring)
CC(C)=CCOc1ccc(C2=C(CC(C)C)C(=O)N(O)C2=O)cc1 [Compound C, 3-isobutyl-4-[4-(3-methyl-2-butenyloxy)phenyl]-1H-pyrrol-1-ol-2,5-dione]	significantly improved	significantly improved	48.55±3.7	40.55±3.9	3.10±0.14	2.10±0.24	not significantly thickened
CC(C)=CCOc1ccc(C2=C(CC(C)C)C(=O)NC2=O)cc1 [Compound B, 3-isobutyl-4-[4-(3-methyl-2-butenyloxy)phenyl]-1H-pyrrol-2,5-dione]	significantly improved	significantly improved	51.65±4.6	42.32±6.7	2.23±0.31	1.93±0.51	not significantly thickened
